Columns and labels:
[1] = test system: Phospholipase aus Leberzellen; conditions: phospholipase from liver cells; Biochem. Pharmacol. 34, 521-24, 1985; cited from earlier work
[2] = test system: Trichophyton Mentagrophytes; assay: Fungicidal (killing) effect on resting stages (microconidia) of Trichophyton Mentagrophytes, overnight incubation in aqua dest., survival after wash-out; type: cell-based; conditions: read-out: Fungizidie (pilzabtötende Wirkung)
Excerpt: Die Fungizide (pilzabtötende Wirkung) der Verbindungendes Typs der Formel I wird bestimmt, indem Ruhestadien (Vermehrungsform ist gleich Mikrokonidien) des Pilzes Trichophyton Mentagrophytes in aqua dest. über Nacht inkubiert werden. Nach Auswaschen des Präparats (vgl. H. Hänel und W. Raether in mycoses 31 (3), 148-154 (1988)) wird auf Überleben der Pilze geprüft.
Einige auf diese Weise bestimmte Werte sind in Tabelle 4 wiedergegeben (Vergleichspräparat ist Rilopirox).

[3] = test system: Candida albicans; assay: Systemic Candida albicans infection in the mouse, survival time, combination therapy with Fluconazol; type: in vivo, Maus; conditions: for Überlebenszeit (bez. auf Fluconazol = 100 %): mice infected i.v. with C. albicans, Fluconazol 9 x p.o. 50 mg/kg/day, combination partner 14 x p.o. 50 mg/kg/day
Excerpt: Als Beispiele für die systemische in vivo-Wirksamkeit der Verbindungen dient die systemische Candida albicans Infektion bei der Maus.
Ziel dieser Methode ist es, den Effekt von Präparaten auf eine systemische Candida albicans Infektion zu ermitteln. Die Infektion führt innerhalb von 2-4 Tagen zum Tod der Tiere.
Beschreibung der Methode: Albino Mäuse (NMRI, Männchen, 15-20 g Körpergewicht) werden intravenös mit Candida albicans Hefezellen infiziert (Stamm 200/175), die frisch auf Malzagar vorkultiviert wurden und in physiologischer Kochsalzlösung suspendiert wurden. Die Infektionsdosis, die in dem angegebenen Zeitrahmen zur Lethalität führt, wurde photometrisch eingestellt und enthielt eine Million Hefezellen pro Maus.
Die zu prüfenden Verbindungen werden entweder alleine oder in Kombination mit einem Standardantimykotikum verabreicht. Im durchgeführten Test wurde ein Kombinationspräparat verwendet, wobei als Standardantimykotikum Fluconazol (Fa. Pfizer) diente. Applikationswege sind je nach Substanzgruppe unterschiedlich, wobei der oralen Applikation der Vorzug gegeben wird. Die Mäuse werden 4 Wochen beobachtet, die Mortalität wird täglich registriert, und die Überlebenszeiten der einzelnen Gruppen werden gemittelt und untereinander verglichen. Gruppengröße beträgt durchschnittlich 10 Tiere.
Der Vergleich der Mittelwerte geschieht mit dem Students T Test.
Dosierungen: Fluconazol jeweils 9 x p.o. 50 mg/kg/Tag Kombinationspartner jeweils 14 x p.o. 50 mg/kg /Tag

| Structure (SMILES) | Hemmwirkung [1] | killing at 10 µg/mL [2] [%] | killing at 20 µg/mL [2] [%] | killing at 40 µg/mL [2] [%] | killing at 80 µg/mL [2] [%] | Überlebenszeit (bez. auf Fluconazol = 100 %) [3] [%] | killing at 5 µg/mL [2] [%] | Verlängerung der Überlebenszeit ([3]; combination therapy with Fluconazol versus Fluconazol monotherapy, compound 14 x 50 mg/kg p.o. once daily) [%] |
| --- | --- | --- | --- | --- | --- | --- | --- | --- |
| CC(C)NCC(O)COc1cccc2ccccc12 (stereo not shown) [Propranolol] | wirksamste Substanz | – | – | – | – | – | – | – |
| CCCCNCC(O)(c1ccc(Cl)cc1)C1(SCc2ccc(C(C)(C)C)cc2)CC1 (stereo not shown) [Verbindung 1.29] | – | 99.7 | 100 | 100 | 100 | – | – | – |
| CC(C)(C)NCC(O)(c1ccc(Cl)cc1)C1(SCc2ccc(C(C)(C)C)cc2)CC1 (stereo not shown) [Verbindung 1.36] | – | 96.5 | 100 | 100 | 100 | – | – | – |
| CC(C)NCC(O)(c1ccc(Cl)cc1)C1(SCc2cccc(C(F)(F)F)c2)CC1 (stereo not shown) [Verbindung 1.17] | – | 96.9 | 100 | 100 | 100 | – | – | – |
| OC(Cn1cncn1)(Cn1cncn1)c1ccc(F)cc1F [Fluconazol, reference compound] | – | – | – | – | – | 100 | – | – |
| CC(C)OCCCNCC(O)(c1ccc(Cl)cc1)C1(SCc2ccc(C(C)(C)C)cc2)CC1 (stereo not shown) [Verbindung 1.35] | – | 100 | 100 | 100 | 100 | – | 99.3 | – |
| CC(C)(C)NCC(O)(c1ccc(Cl)cc1)C1(SCc2ccc(Cl)cc2F)CC1 (stereo not shown) [Verbindung 1.44] | – | 99.1 | 100 | 100 | 100 | – | – | – |
| Cc1cc(COc2ccc(Oc3ccc(Cl)cc3)cc2)n(O)c(=O)c1 [Rilopirox, reference compound] | – | 100 | 100 | 100 | 100 | – | 96.2 | – |
| CCCCNCC(O)(c1ccc(Cl)cc1)C1(SCc2ccc(Cl)cc2)CC1 (stereo not shown) [Verbindung 1.4] | – | – | – | – | – | 157 | – | 57 |
| CCCCNCC(O)(c1ccc(C)cc1)C1(SCc2cccc(C(F)(F)F)c2)CC1 (stereo not shown) [Verbindung 1.48] | – | 99.4 | 100 | 100 | 100 | – | – | – |

From EP0488169A1, “Beta-Hydroxyethylamines with a 1,1-disubstituted cyclopropyl-group, process for their preparation and use” (HOECHST AKTIENGESELLSCHAFT, priority 1990, dated 1992)
